According to publication PMC9841523 (Journal of Medicinal Chemistry, 2022):
Where “and” joins values, the source holds several entries; their conditions need not be identical. Equal entries are not always repeated. Where two headings read alike, the source gives them in different places.

Key:
MASTL = biological target: T1, MASTL (Homo sapiens, UniProt Q96GX5); experiment: KiNativ kinase panel; assay type: cell-based; details: 1 μM, MCF-7 Cells
T1 construct: purchased ActivX Biosciences (KiNativ)
T1 sequence (Q96GX5 1-879): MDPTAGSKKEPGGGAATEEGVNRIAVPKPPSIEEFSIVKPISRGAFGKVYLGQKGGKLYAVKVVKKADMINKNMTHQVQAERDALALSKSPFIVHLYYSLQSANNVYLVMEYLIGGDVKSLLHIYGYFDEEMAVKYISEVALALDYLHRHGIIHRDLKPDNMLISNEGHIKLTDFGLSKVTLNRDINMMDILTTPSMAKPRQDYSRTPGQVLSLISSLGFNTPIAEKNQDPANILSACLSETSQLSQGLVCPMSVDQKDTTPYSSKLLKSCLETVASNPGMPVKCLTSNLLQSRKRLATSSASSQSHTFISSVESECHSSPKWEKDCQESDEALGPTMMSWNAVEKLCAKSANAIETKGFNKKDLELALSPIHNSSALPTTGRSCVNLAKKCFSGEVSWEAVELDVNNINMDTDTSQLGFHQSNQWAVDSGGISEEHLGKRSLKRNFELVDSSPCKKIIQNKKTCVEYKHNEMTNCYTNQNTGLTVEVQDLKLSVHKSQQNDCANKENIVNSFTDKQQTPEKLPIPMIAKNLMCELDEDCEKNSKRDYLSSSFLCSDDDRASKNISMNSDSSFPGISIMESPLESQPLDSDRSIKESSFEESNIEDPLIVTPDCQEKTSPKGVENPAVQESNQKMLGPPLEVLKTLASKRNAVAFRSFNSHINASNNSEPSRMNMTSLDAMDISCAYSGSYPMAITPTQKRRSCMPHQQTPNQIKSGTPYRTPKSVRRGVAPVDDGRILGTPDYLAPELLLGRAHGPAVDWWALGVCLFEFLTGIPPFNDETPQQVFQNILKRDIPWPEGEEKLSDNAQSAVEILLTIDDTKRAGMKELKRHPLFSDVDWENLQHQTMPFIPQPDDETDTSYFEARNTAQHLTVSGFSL

MAP2K1, MAP2K2 = experiment: KiNativ kinase panel; assay type: cell-based, human; details: 1 μM, MCF-7 Cells
PI4KA, PI4KAP2 = experiment: KiNativ kinase panel; assay type: cell-based, human; details: 1 μM, MCF-7 Cells, ATP
[1] = test system: MSK1 domain1, MSK2 domain1; experiment: KiNativ kinase panel; assay type: cell-based, human; details: 1 μM, MCF-7 Cells, ATP Loop
IRAK4 = biological target: T2, IRAK4 (Homo sapiens, UniProt Q9NWZ3); experiment: KiNativ kinase panel; assay type: cell-based; details: 1 μM, MCF-7 Cells
T2 construct: MCF7 cells were exposed to; endogenous in cells; host or cells: MCF7
T2 sequence (Q9NWZ3 1-460): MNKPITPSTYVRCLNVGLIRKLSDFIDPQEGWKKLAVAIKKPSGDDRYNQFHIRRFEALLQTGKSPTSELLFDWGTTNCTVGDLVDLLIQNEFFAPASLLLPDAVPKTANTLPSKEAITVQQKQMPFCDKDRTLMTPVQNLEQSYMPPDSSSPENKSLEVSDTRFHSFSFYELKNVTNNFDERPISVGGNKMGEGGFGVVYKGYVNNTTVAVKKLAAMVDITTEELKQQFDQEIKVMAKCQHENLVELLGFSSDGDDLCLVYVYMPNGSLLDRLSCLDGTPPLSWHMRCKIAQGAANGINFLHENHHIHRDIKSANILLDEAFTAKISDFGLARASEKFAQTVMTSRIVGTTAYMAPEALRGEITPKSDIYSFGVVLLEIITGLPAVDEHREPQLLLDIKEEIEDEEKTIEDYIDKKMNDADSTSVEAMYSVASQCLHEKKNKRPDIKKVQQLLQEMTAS

[2] = Mouse pharmacokinetics, IP administration; assay type: in vivo; details: male Balb/c mice, 1 mg/kg IP, mean ± SD, n = 3
Method: Mouse Pharmacokinetic Studies. Male Balb/C mice were non-fasted on the day of dosing. PK […]
plasma were conducted using an AB Sciex Triple Quad 6500+ mass spectrometer coupled with a Waters UPLC system. Supernatants were collected by centrifugation after protein precipitation using MeCN containing internal standard (IS, D4-AEA). Supernatant was injected for LC- […]
μm) column. The LC mobile phase (A: 5 mM NH 4OAc in H 2O; B: MeCN/MeOH 50/50)

CHK1 = biological target: T3, CHK1 (Homo sapiens, UniProt O14757); experiment: KiNativ kinase panel; assay type: cell-based; details: 1 μM, MCF-7 Cells
T3 construct: host or cells: MCF7
T3 sequence (O14757 1-476): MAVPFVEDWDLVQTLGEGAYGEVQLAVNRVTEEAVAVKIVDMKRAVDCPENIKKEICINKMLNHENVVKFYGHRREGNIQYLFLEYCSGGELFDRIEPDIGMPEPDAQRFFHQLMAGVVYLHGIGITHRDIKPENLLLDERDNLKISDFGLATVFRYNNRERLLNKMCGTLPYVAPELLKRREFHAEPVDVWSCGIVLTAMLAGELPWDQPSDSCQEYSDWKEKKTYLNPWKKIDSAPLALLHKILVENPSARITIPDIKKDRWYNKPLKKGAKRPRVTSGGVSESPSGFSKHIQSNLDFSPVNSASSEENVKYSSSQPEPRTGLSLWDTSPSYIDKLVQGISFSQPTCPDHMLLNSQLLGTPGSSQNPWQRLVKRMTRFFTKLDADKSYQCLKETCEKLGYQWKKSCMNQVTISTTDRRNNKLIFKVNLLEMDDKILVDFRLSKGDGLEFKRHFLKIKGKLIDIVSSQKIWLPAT

## CO[C@H]1C[C@@H]2CC[C@@H](C)[C@@](O)(O2)C(=O)C(=O)N2CCCC[C@H]2C(=O)O[C@H]([C@H](C)C[C@@H]2CC[C@@H](OC(=O)NCCOCCOCCOCCOCCOCCOCCOCCOCCC(=O)NCCS(=O)(=O)c3ccc(C(=O)N4CCOc5ccc(-c6ccc(N)nc6)cc5C4)c(C)c3F)[C@H](OC)C2)C[C@@H](O)[C@H](C)/C=C(\C)[C@@H](O)[C@@H](OC)C(=O)[C@H](C)C[C@H](C)/C=C/C=C/C=C/1C [compound 40]
MASTL; Lys1, LYAVKVVK
  KiNativ Kinase Panel Data: -10.0
MAP2K1, MAP2K2; Lys1, KLIHLEIKPAIR
  KiNativ Kinase Panel Data: -34.9
MAP2K1, MAP2K2; Lys2, DVKPSNILVNSR
  KiNativ Kinase Panel Data: -22.1
PI4KA, PI4KAP2; SGTPMQSAAKAPYLAK
  KiNativ Kinase Panel Data: -5.7
[1]; VLGTGAYGKVFLVR
  KiNativ Kinase Panel Data: 16.0
IRAK4; Lys1, GYVNNTTVAVKK
  KiNativ Kinase Panel Data: -35.0
IRAK4; Lys2, DIKSANILLDEAFTAK
  KiNativ Kinase Panel Data: -35.4
[2]
  Tmax: 2.3 ± 1.5 h
  t1/2: 3.8 ± 0.6 h
[2]; 1 mg/kg
  AUClast: 8.7 ± 1.2 µM·h
CHK1; Lys2, DIKPENLLLDER
  KiNativ Kinase Panel Data: -10.9
CHK1; Other, LSKGDGLEFK
  KiNativ Kinase Panel Data: 19.6

## CO[C@H]1C[C@@H]2CC[C@@H](C)[C@@](O)(O2)C(=O)C(=O)N2CCCC[C@H]2C(=O)O[C@H]([C@H](C)C[C@@H]2CC[C@@H](OC(=O)NCCOCCOCCOCCOCCOCCOCCOCCOCCC(=O)N3CCc4cc(Cn5nc(-c6ccc7oc(N)nc7c6)c6c(N)ncnc65)ccc4C3)[C@H](OC)C2)C[C@@H](O)[C@H](C)/C=C(\C)[C@@H](O)[C@@H](OC)C(=O)[C@H](C)C[C@H](C)/C=C/C=C/C=C/1C [compound 38]
MASTL; ATP Loop, GAFGKVYLGQK
  KiNativ Kinase Panel Data: 4.3
MASTL; Lys1, LYAVKVVK
  KiNativ Kinase Panel Data: 17.4
MAP2K1, MAP2K2; Lys1, KLIHLEIKPAIR
  KiNativ Kinase Panel Data: 14.8
MAP2K1, MAP2K2; Lys2, […]
  KiNativ Kinase Panel Data: 7.6
PI4KA, PI4KAP2; […]
  KiNativ Kinase Panel Data: -38.9
[1]; […]
  KiNativ Kinase Panel Data: 33.6
IRAK4; Lys1, GYVNNTTVAVKK
  KiNativ Kinase Panel Data: -7.0
IRAK4; Lys2, DIKSANILLDEAFTAK
  KiNativ Kinase Panel Data: -19.3
[2]; mouse, in vivo
  AUC(0-t): 25.9 ± 3 µM·h
  Cmax: 5670 ng/mL and 3.19 µM
  half-life: 4.8 ± 0.4 h
[2]; mouse, in vivo, read-out: Tmax
  Tmax: 2 h
CHK1; Lys2, […]
  KiNativ Kinase Panel Data: -13.6
CHK1; Other, […]
  KiNativ Kinase Panel Data: 25.4
